Consider 28 compounds from ChEMBL document CHEMBL1151905, “Discovery of 5-substituted 2-amino-4-chloro-8-((4-methoxy-3,5-dimethylpyridin-2-yl)methyl)-7,8-dihydropteridin-6(5H)-ones as potent and selective Hsp90 inhibitors” (Bioorg Med Chem Lett, 2009).

pIC50: −log10 of the molar value. ≈ marks a conversion by molar mass, not a printed value.

Data set [1] deals with MCF7. The experiment in a line: Growth inhibition of human MCF7 cells. Type of data set: functional, cell-based.
In data set [2] the test system is HT-29. Briefly: Growth inhibition of human HT-29 cells. It counts as functional, cell-based.
Data set [3] deals with Heat shock protein HSP90 (Homo sapiens, UniProt P07900+P08238). The experiment in a line: Inhibition of HSP90 in human SKBR3 cells assessed as induction of Her2 degradation. Type of data set: cell-based. The note with it: sk-br-3.
The nature of data set [4]: Inhibition of HSP90 by fluorescence polarization assay.
For data set [5], the system named is SK-BR-3. The experiment in a line: Growth inhibition of human SKBR3 cells. Type of data set: functional, cell-based.
Data set [6] has as its system BT-474. The experiment in a line: Growth inhibition of human BT474 cells. Type of data set: functional, cell-based.
In data set [7] the test system is HMEC. Briefly: Growth inhibition of HMEC cells. Type of data set: cell-based. The note with it: Homo sapiens.
Data set [8] deals with HT-29. The experiment in a line: Selectivity index, ratio of IC50 for HMEC cells to IC50 for human HT-29 cells. Type of data set: functional.
Data set [9] deals with MCF7. Briefly: Selectivity index, ratio of IC50 for HMEC cells to IC50 for human MCF7 cells. Type of data set: functional.
The test system of data set [10] is HMEC. Briefly: Selectivity index, ratio of IC50 for HMEC cells to IC50 for human BT474 cells. Type of data set: functional.
Data set [11] relates to HMEC. The experiment in a line: Selectivity index, ratio of IC50 for HMEC cells to IC50 for human SKBR3 cells. It counts as functional.
Data set [12] is described as follows: Metabolic stability in rat liver microsomes. Type of data set: ADME, Microsome. Background: Microsomes from liver hold many membrane-bound enzymes, among them those of drug oxidation.
The nature of data set [13]: Metabolic stability in human liver microsomes. Type of data set: ADME, Microsome.
Data set [14] in a line: Aqueous solubility at pH 3. It counts as physicochemical.
Data set [15] can be described thus: Oral bioavailability in rat. Type of data set: ADME, organism-based. The note with it: in vivo.
The nature of data set [16]: Metabolic stability in mouse liver microsomes. Type of data set: ADME, Microsome.

As to `COc1c(C)cnc(CN2c3nc(N)nc(Cl)c3NC(=O)[C@H]2C)c1C`, the pIC50 (as a rule, the IC50 on a negative log10 scale, so that one unit is a factor of ten) was 6.10 in data set [1]; 6.33 in data set [2]; 6.40 in [4]; 6.66 in data set [5]; 6.39 in [6]. For the same compound, in data set [3], the IC50 – broadly, the concentration at which inhibition is half-maximal – worked out at 350 nM.
For the compound `COc1c(C)cnc(CN2CC(=O)N(CCN3CCCC3)c3c(Cl)nc(N)nc32)c1C`, the negative logarithm of the IC50 (pIC50) in data set [1] is 5.88; in data set [2], 5.97; in [4], 6.18; in data set [5], 6.52; in data set [6], 6.28. Also, in [3], the IC50 amounted to 510 nM.
Take `COc1c(C)cnc(CN2CC(=O)N(C3CCCC3)c3c(Cl)nc(N)nc32)c1C`: the pIC50 was 6.09 in data set [1], 6.48 in data set [2], 6.92 in data set [5] and 6.54 in [6]. The IC50 in [3] turned out to be 110 nM.
Consider `COc1c(C)cnc(CN2CC(=O)N(C(C)C)c3c(Cl)nc(N)nc32)c1C`, for which the pIC50 in [1] was 7.30; in data set [2] it was 7.22; in [4], 7.15; in [7] it was 6.49; in [5], 7.70; in data set [6], 7.52. In addition, in [3], the IC50 was found to be 50 nM.
Take `COc1nc(N)nc2c1N(CC(C)C)C(=O)CN2Cc1ncc(C)c(OC)c1C`: the IC50 in data set [3] came to 1070 nM.
Same read-out and setting: as for `COc1c(C)cnc(CN2c3nc(N)nc(Cl)c3N(CC(C)C)C(=O)[C@@H]2C)c1C`, the figure is over 5000 nM.
Consider `COc1c(C)cnc(CN2CCNc3c(Cl)nc(N)nc32)c1C`, for which, in data set [3], the IC50 is over 5000 nM. Besides, the pIC50 in data set [4] is under 5.30.
Consider `COc1c(C)cnc(CN2CC(=O)N(C(=O)NCCN3CCOCC3)c3c(Cl)nc(N)nc32)c1C`, for which the pIC50 is 5.67 in data set [1], 5.92 in data set [2], under 5.30 in data set [5] and under 4.00 in data set [6]. The IC50 in data set [3] was over 10000 nM.
`COc1ccnc(CN2CC(=O)N(CC(C)C)c3c(Cl)nc(N)nc32)c1OC`: the pIC50 was 7.00 in data set [1]; 7.40 in [2]; 6.62 in [7]; 8.00 in data set [5]; 7.52 in data set [6]. The “Ratio IC50” value is 6 in data set [8], 2 in data set [9], 6 in data set [10] and 6 in [11]. The IC50 in [3] is 160 nM.
With `COc1c(C)cnc(CN2CC(=O)N(CC(C)C)c3c(Cl)nc(N)nc32)c1C`, the pIC50 in data set [1] is 7.15; in data set [2], 7.40; in [4] it was 7.30; in [7], 6.89; in data set [5], 8.00; in [6] it was 7.70. The “Ratio IC50” value in data set [8] was 3; in data set [9], 2; in data set [10], 6; in data set [11] it was 13. In addition, the IC50 in [3] came to 40 nM.
With `COc1c(C)cnc(CN2c3nc(N)nc(Cl)c3N(CC(C)C)C(=O)[C@@H]2C(C)C)c1C`, in data set [3], the IC50 is over 5000 nM.
Still for that read-out and setting: as for `COc1c(C)cnc(Cn2c(=O)c(=O)[nH]c3c(Cl)nc(N)nc32)c1C`, the figure is over 5000 nM.
Regarding `Cc1cnc(CN2CC(=O)N(CC(C)C)c3c(Cl)nc(N)nc32)c(C)c1Cl`, the pIC50 in [1] is 6.33; in [2], 6.55; in data set [5], 6.96; in data set [6], 6.62. Moreover, the IC50 in [3] worked out at 590 nM.
With `COc1c(C)cnc(CN2CC(=O)N(CC(C)C)c3c(C)nc(N)nc32)c1C`, the IC50 in [3] is 980 nM.
Take `COc1c(C)cnc(CN2CC(=O)N(CCCN3CCOCC3)c3c(Cl)nc(N)nc32)c1C`: the pIC50 in [1] was 5.59; in data set [2] it was 5.53; in [5] it was 5.95; in data set [6] it was 5.74. Moreover, the IC50 in data set [3] was found to be 1550 nM.
Taken in the same sequence, the figures for `COc1c(C)cnc(CN2c3nc(N)nc(Cl)c3NC(=O)[C@@H]2CC(C)C)c1C` were 6.03, 6.16, 6.64, 6.31 and 370 nM.
As to `COc1nc(CN2CC(=O)N(CC(C)C)c3c(Cl)nc(N)nc32)c(Cl)c(OC)c1OC`, the IC50 in data set [3] was over 5000 nM.
In the case of `COc1c(C)cnc(CN2CC(=O)Nc3c(Cl)nc(N)nc32)c1C`, the pIC50 in [1] was 5.83; in data set [2], 5.93; in [4] it was 6.06; in data set [5] it was 6.41; in data set [6], 6.19. The half-life in data set [12], in [13] and in data set [16] was over 1 h in each case. In addition, the IC50 in [3] is 570 nM. In data set [14], the solubility (in general, how much of the substance goes into solution per volume) came out at 381 µM (≈ 133 µg/mL). Besides, the bioavailability (as a rule, dose-corrected exposure relative to a reference, in per cent) in [15] was 60%.
With `COc1c(C)cnc(CN2CC(OC3CCCC3)=Nc3c(Cl)nc(N)nc32)c1C`, the pIC50 in [1] is 7.40; in data set [2], 7.70; in [5] it was 8.30; in data set [6] it was 8.00. Further, the IC50 in data set [3] came to 10 nM.
Take `COc1c(C)cnc(CN2CC(=O)N(C)c3c(Cl)nc(N)nc32)c1C`: the pIC50 in [1] was 5.66; in [2], 5.83; in [4], 6.02; in data set [5] it was 6.34; in data set [6], 6.02. Also, the IC50 in data set [3] was 930 nM.
Regarding `COc1c(C)cnc(CN2CC(=O)N(C(C)C(=O)NCCN(C)C)c3c(Cl)nc(N)nc32)c1C` (stereo not drawn), the pIC50 in data set [1] is 6.92; in data set [2] it was 7.00; in data set [5], 7.52; in [6], 7.22. Moreover, the IC50 in data set [3] amounted to 100 nM.
Consider `COc1c(C)cnc(CN2c3nc(N)nc(Cl)c3NC(=O)[C@@H]2C(C)C)c1C`, for which the pIC50 was 5.80 in [1]; 5.97 in data set [2]; 5.67 in data set [4]; 6.37 in [5]; 6.12 in [6]. In addition, in [3], the IC50 was 650 nM.
Consider `Cc1cnc(CN2CC(=O)N(CC(C)C)c3c(Cl)nc(N)nc32)c(C)c1Br`, for which the negative-log IC50 (pIC50) in data set [1] is 6.55; in data set [2], 6.85; in data set [4], 7.22; in [7], 6.74; in data set [5] it was 7.22; in data set [6], 6.89. In data set [3], the IC50 was determined as 100 nM.
Take `COc1c(C)cnc(CN2c3nc(N)nc(Cl)c3NC(=O)[C@@H]2CCO)c1C`: in data set [3], the IC50 was found to be 280 nM. This compound also showed a pIC50 in data set [4] of 6.19.
With `COc1c(C)cnc(CN2c3nc(N)nc(Cl)c3NC(=O)[C@@H]2C)c1C`, the pIC50 in data set [1] is 6.03; in data set [2], 6.18; in data set [5], 6.60; in [6], 6.33. Besides, the 50% inhibitory concentration (IC50) in data set [3] is 430 nM.
As to `COc1c(C)cnc(CN2CC(=O)N(CCCC(C)C)c3c(Cl)nc(N)nc32)c1C`, the negative logarithm of the IC50 (pIC50) in data set [1] was 5.51; in data set [2] it was 5.65; in data set [4] it was 6.05; in data set [5] it was 6.01; in data set [6], 5.78. Further, the concentration for half-maximal inhibition (IC50) in data set [3] worked out at 1910 nM.
For `COc1c(C)cnc(CN2c3nc(N)nc(Cl)c3N(C(C)C)C(=O)[C@@H]2C(C)C)c1C`, the negative logarithm of the IC50 (pIC50) in [1] was 7.40; in data set [2] it was 7.05; in data set [4], 7.10; in data set [5], 8.30; in data set [6], 7.70. Moreover, in data set [3], the IC50 was 60 nM.
In the case of `COc1c(C)cnc(Cn2c(=O)cnc3c(Cl)nc(N)nc32)c1C`, the IC50 in data set [3] was over 10000 nM.
